Measured values taken from patent US20260062412A1, “NITROGEN-CONTAINING HETEROCYCLIC COMPOUND HAVING MYT1 INHIBITORY ACTIVITY” (CHUGAI SEIYAKU KABUSHIKI KAISHA, priority 2023, published 2026).

Legend:
MYT1 protein [1] = biological target: T1, MYT1 protein (Homo sapiens (Human), UniProt Q99640); assay: Test for binding to ATP binding site of MYT1 (Kinase Tracer 178 / Eu-Anti-GST antibody TR-FRET); details: ATP binding site of MYT1, 30 minutes at room temperature
MYT1 protein [2] = biological target: T1, MYT1 protein; assay: MYT1 kinase activity inhibition test (ELISA, phosphorylation of Y15 of CDK1); assay type: biochemical; details: phosphorylation level of Y15 of CDK1 protein caused by MYT1 protein, 60 minutes
Summary of the method: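 Recombinant human MYT1 (5 nM working solution) was incubated 60 min at room temperature with compound and ATP (83.3 μM working solution) on a CDK1-coated ELISA plate. CDK1 Y15 phosphorylation was detected with HRP anti-phosphotyrosine, read as A450 minus A590. Inhibition was normalised to no-compound (100%) and no-enzyme (0%) signals to derive IC50.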

LU65 = assay: Cytotoxicity test with pemetrexed upon addition of each example compound (CellTiter-Glo); assay type: cell-based, human; details: combination with pemetrexed, LU65 cells, 7 days; maximum value, at the MYT1 inhibitor and pemetrexed concentrations
Summary of the method: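 LU65 lung cancer cells (RB1 S82* truncation, reduced RB1 function) in RPMI-1640/10% FBS were treated with pemetrexed plus each compound over concentration series, 7 days at 37 °C. ATP measured by CellTiter-Glo luminescence; survival relative to DMSO after blank subtraction, cytotoxicity = 100% minus survival.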

T1 sequence (Q99640 whole entry): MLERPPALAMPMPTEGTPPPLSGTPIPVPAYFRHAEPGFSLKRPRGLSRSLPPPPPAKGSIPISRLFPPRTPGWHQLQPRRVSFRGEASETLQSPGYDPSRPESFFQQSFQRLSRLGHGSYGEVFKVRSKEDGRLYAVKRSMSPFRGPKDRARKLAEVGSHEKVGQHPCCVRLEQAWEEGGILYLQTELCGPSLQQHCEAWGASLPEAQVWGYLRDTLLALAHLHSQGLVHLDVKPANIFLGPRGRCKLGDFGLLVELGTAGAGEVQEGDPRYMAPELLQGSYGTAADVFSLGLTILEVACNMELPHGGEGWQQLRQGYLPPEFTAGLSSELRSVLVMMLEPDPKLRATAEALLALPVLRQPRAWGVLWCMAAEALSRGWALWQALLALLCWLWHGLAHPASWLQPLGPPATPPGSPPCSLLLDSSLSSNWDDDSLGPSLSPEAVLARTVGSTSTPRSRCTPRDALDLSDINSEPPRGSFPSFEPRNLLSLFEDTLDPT

Nc1c(-c2cccc3[nH]ncc23)c2cc(C3CC3)c3ccncc3c2[nH]c1=O [Compound Q1, 3-Amino-6-cyclopropyl-4-(1H-indazol-4-yl)-1H-1,9-phenanthrolin-2-one]
IC50 (MYT1 protein [1]): 9.3 nM
IC50 (MYT1 protein [2]): 0.83 nM
Bliss Score (Max) (LU65): 52%
HSA Score (MAX) (LU65): 58%
